Assay results as given in US5854280A, “Antifungal sordaridin derivatives” (Glaxo Wellcome S.A., priority 1994, dated 1998).
Values after ≈ are worked out from the molar mass of the structure shown.

Experiments:
[1] = acute oral toxicity (LD50); assay type: in vivo; settings: male mice
Experimental: (§1) The compounds of the invention are essentially non-toxic at therapeutically useful levels. […] The LD50 value for the compound of example 8, in male mice is >1000 mg/kg po.

[2] = system: C. albicans 4711E; experiment: protection of mice infected with C. albicans; assay type: in vivo, male mice infected with C. albicans 4711E; settings: 50 mg/kg po
Source text: The in vivo evaluation of compounds of formula (I) can be carried out at a series of dose levels by administration (e.g. subcutaneously, orally, intraperitoneally or intravenously) to mice or rats inoculated with a strain of Candida albicans. Untreated animals die within 3 to 9 days and the dose level at which the test compound provides 50% protection against the lethal effect of the infection is noted.
as §1

[3] = system: battery of fungal organisms; settings: tested against a battery of fungal organisms; cited from earlier work
[4] = British Patent 1,162,027 / Japanese application J6 2040292A; cited from earlier work
[5] = system: C. psuedotropicalis 2371E; experiment: in vitro antifungal MIC, two-fold serial dilution; assay type: cell-based, Candida pseudotropicalis
Experimental: (§2) The in vitro evaluation of the anti-fungal activity of compounds of the invention was performed on liquid or solid medium by the anti-fungal two-fold serial dilution technique of determining the minimum inhibitory concentration (MIC) of anti-fungal agent that inhibited development of growth after 24 to 48 hours of incubation at 37° C. In practice, a series of agar plates or broth microdilution panels containing two-fold dilutions of anti-fungal agent tested were inoculated with a standard culture of a clinically relevant pathogen, for example, Candida albicans. The agar plates or broth microdulution panels were then examined for the presence or absence of growth of the fungus and the appropriate MIC values were noted.
(§3) Compounds of formula (I) have been tested for anti fungal activity in a standard in vitro screen and the minimum inhibiting concentration (MIC; μg/ml) determined for each compound against a variety of clinically relevant pathogens.

[6] = system: C. glabrata 2375E; experiment: in vitro antifungal MIC, two-fold serial dilution; assay type: cell-based, Candida glabrata
Experimental: as §2, §3

[7] = system: C. glabrata 2376E; experiment: in vitro antifungal MIC, two-fold serial dilution; assay type: cell-based, Candida glabrata
Experimental: as §2, §3

[8] = system: C. neoformans 2867E; experiment: in vitro antifungal MIC, two-fold serial dilution; assay type: cell-based, Cryptococcus neoformans
Experimental: as §2, §3

[9] = system: C. tropicalis 2808E; experiment: in vitro antifungal MIC, two-fold serial dilution; assay type: cell-based, Candida tropicalis
Experimental: as §2, §3

[10] = system: C. albicans 2005E; experiment: in vitro antifungal MIC, two-fold serial dilution; assay type: cell-based, Candida albicans
Experimental: as §2, §3

[11] = system: C. aibicans 2402E; experiment: in vitro antifungal MIC, two-fold serial dilution; assay type: cell-based, Candida albicans
Experimental: as §2, §3

[12] = system: C. albicans 1208E; experiment: in vitro antifungal MIC, two-fold serial dilution; assay type: cell-based, Candida albicans
Experimental: as §2, §3

[13] = system: C. albicans 4711; experiment: in vitro antifungal MIC, two-fold serial dilution; assay type: cell-based, Candida albicans
Experimental: as §2, §3

Row | SMILES | LD50 [1] [mg/kg] | activity in protecting male mice infected with C. albicans 4711E [2] | antifungal activity [3] | spectrum of action [3] | reported activity [4] | MIC (minimum inhibiting concentration) [5] [µg/mL] | MIC (minimum inhibiting concentration) [6] [µg/mL] | MIC (minimum inhibiting concentration) [7] [µg/mL] | MIC (minimum inhibiting concentration) [8] [µg/mL] | MIC (minimum inhibiting concentration) [9] [µg/mL] | MIC (minimum inhibiting concentration) [10] [µg/mL] | MIC (minimum inhibiting concentration) [11] [µg/mL] | MIC (minimum inhibiting concentration) [12] [µg/mL] | MIC (minimum inhibiting concentration) [13] [µg/mL]
1 | CC(C)C1=CC2CC3(C=O)C4CCC(C)C4CC2(COC2CC4OC(C)(C)OC4C(C)O2)C13C(=O)[O-].[Na+] [Example 8, [1R-(1α,3aβ,4β,4aβ,7β,7aα,8aβ)]8a-[(2,6-Dideoxy-3,4-O-isopropylidene-β-D-allopyranosyloxy)methyl]-4-formyl-4,4a,5,6,7,7a,8,8a-octahydro-7-methyl-3-(1-methylethyl)-1,4-methano-s-indacene-3a(1H)-carboxylic acid, sodium salt] | > 1000 | active in protecting male mice | – | – | – | – | – | – | – | – | – | – | – | –
2 | CO[C@H]1[C@@H](O)[C@H](O)[C@H](OC[C@@]23C[C@@H]4[C@H](C)CC[C@H]4[C@@]4(C=O)CC2C=C(C(C)C)[C@@]34C(=O)O)O[C@@H]1C [sordarin] | – | – | only moderately active | limited spectra of action | fungistatic activity | – | – | – | – | – | – | – | – | –
3 | C/C=C/C=C\C(=O)O[C@H]1[C@H](O)[C@H](OCC23C[C@@H]4[C@H](C)CC[C@H]4C4(C=O)CC2C=C(C(C)C)C34C(=O)O)O[C@H](C)[C@H]1OC (some centres unmarked) [zofimarin] | – | – | only moderately active | limited spectra of action | antifungal activity | – | – | – | – | – | – | – | – | –
4 | CC(C)C1=CC2CC3(C=O)C4CCC(C)C4CC2(COC2CC4C(=O)COC4C(C)O2)C13C(=O)O [Example 37, [1R-(1α,3aβ,4β,4aβ,7β,7aα,8aβ)]8a-[[1S,7R,9R]-2,8-Dioxa-9-methyl-4-oxo-cis-bicyclo[3.4.0]-non-7-yl-oxy-methyl]-4-formyl4,4a,5,6,7,7a,8,8a-octahydro-7-methyl-3-(1-methyl-ethyl)-1,4-methano-s-indacene-3a(1H)-carboxylic acid] | – | – | – | – | – | 0.060 (≈ 0.123 µM) | 4.00 (≈ 8.22 µM) | 6.00 (≈ 12.3 µM) | ≤ 0.250 | 0.500 (≈ 1.03 µM) | 0.001 (≈ 0.00206 µM) | 0.060 (≈ 0.123 µM) | 0.060 (≈ 0.123 µM) | 0.030 (≈ 0.0617 µM)
5 | CC(C)C1=CC2CC3(C=O)C4CCC(C)C4CC2(COC2CC4C(C)COC4C(C)O2)C13C(=O)[O-].[Na+] [Example 20, [1R-(1α,3aβ,4β,4aβ,7β,7aα,8aβ)]8a-[[1S,4R,7R,9R]-2,8-Dioxa-4,9-dimethyl-cis-bicyclo[3.4.0]-7-yl-oxy-methyl]-4-formyl-4,4a,5,6,7,7a,8,8a-octahydro-7-methyl-3-(1-methylethyl)-1,4-methano-s-indacene-3a(1H)-carboxylic acid, sodium salt] | – | – | – | – | – | 0.004 | 0.500 | 0.500 | 0.250 | 0.008 | ≤ 0.001 | ≤ 0.001 | ≤ 0.001 | ≤ 0.001
6 | C=C1COC2C(C)OC(OCC34CC5C(C)CCC5C5(C=O)CC3C=C(C(C)C)C54C(=O)[O-])CC12.[Na+] [Example 34, [1R-(1α,3aβ,4β,4aβ,7β,7aα,8aβ)]8a-[[1S,7R,9R]-2,8-Dioxa-9-methyl-4-methylene-cis-bicyclo[3.4.0]-non-7-yl-oxy-methyl]-4-formyl-4,4a, 5,6,7,7a,8,8a-octahydro-7-methyl-3-(1-methylethyl)-1,4-methano-s-indacene-3a(1H)-carboxylic acid, sodium salt] | – | – | – | – | – | ≤ 0.001 | 1.000 | 1.000 | ≤ 0.250 | 0.150 | 0.001 | 0.001 | 0.001 | 0.001
7 | CC(C)C1=CC2CC3(C=O)C4CCC(C)C4CC2(COC2CC4OCC(C)C4C(C)O2)C13C(=O)O [Example 16, [1R-(1α,3aβ,4β,4aβ,7β,7aα,8aβ)]8a-[[1S,4S,6R,8R]-2,7-Dioxa-4,6-dimethyl-cis-bicyclo[3.4.0]-non-8-yl-oxy-methyl]-4-formyl-4,4a,5,6,7,7a,8,8a-octahydro-7-methyl-3-(1-methylethyl)-1,4-methano-s-indacene-3a(1H)-carboxylic acid] | – | – | – | – | – | < 0.001 | 8.00 (≈ 16.4 µM) | 8.00 (≈ 16.4 µM) | 1.00 (≈ 2.05 µM) | 0.008 (≈ 0.0164 µM) | 0.001 (≈ 0.00205 µM) | 0.001 (≈ 0.00205 µM) | 0.001 (≈ 0.00205 µM) | 0.001 (≈ 0.00205 µM)
